Data set [1] deals with T1, LinB (Sphingobium indicum, UniProt D4Z2G1).
T1 construct: His-tagged, expressed in E. coli BL21(DE3), Ni-NTA purified; PDB 1MJ5 given for the docking model of the same protein
T1 sequence (D4Z2G1 2-296): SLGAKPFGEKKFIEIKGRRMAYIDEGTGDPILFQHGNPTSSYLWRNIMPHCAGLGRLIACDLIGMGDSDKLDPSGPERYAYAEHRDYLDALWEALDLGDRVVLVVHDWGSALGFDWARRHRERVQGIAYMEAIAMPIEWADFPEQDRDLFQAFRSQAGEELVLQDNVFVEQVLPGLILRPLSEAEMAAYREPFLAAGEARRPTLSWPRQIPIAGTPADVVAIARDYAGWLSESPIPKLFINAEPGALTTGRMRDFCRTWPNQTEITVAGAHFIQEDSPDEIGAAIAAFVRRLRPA
Kind of data set: stopped-flow tryptophan fluorescence after preincubation. The class given is biochemical. The conditions noted are these: 100 mM glycine pH 8.6, 37 °C; slow irreversible inhibition, substrate E-3c.

Data set [2] concerns the target T2, DmmA (Lyngbya majuscula, UniProt Q6DND9).
T2 construct: gene curN; His-tagged, expressed in E. coli BL21(DE3), Ni-NTA purified; PDB 3U1T for the docking model of the same protein
T2 sequence (Q6DND9 25-341): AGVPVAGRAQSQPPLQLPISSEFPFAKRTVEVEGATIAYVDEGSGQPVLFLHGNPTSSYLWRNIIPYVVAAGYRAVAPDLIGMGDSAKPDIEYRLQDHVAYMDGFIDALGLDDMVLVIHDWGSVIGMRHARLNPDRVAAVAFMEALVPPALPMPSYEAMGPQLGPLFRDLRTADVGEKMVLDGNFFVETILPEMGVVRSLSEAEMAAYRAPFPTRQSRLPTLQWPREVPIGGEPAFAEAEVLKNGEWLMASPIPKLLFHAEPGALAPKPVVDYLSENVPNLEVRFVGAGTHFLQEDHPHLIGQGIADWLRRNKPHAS
In words: ITC progress curves. The class given is biochemical. The source says:
ITC progress curves on DmmA | Z-isomer of substrate 3a binds to the enzyme’s active site and functions as a competitive inhibitor

The target of data set [3] is T2, DmmA. Kind of data set: global fit of stopped-flow fluorescence/absorbance and ITC. It is filed as biochemical. The following applies: 100 mM glycine pH 8.6, 37 °C; enzyme-product complex after isomerization (EP2); read-out: K5. From the text:
global fit of stopped-flow fluorescence/absorbance and ITC on DmmA

Data set [4] deals with T1, LinB. The data set is described as above. It is filed as biochemical. The conditions noted are these: 100 mM glycine pH 8.6, 37 °C. The source says: global fit of stopped-flow fluorescence/absorbance and ITC on LinB
Substrate in the data set “ITC progress curves”: C[N+](C)(C)Cc1ccc(/N=N/c2cccc(CCl)c2)cc1
Kind of data set: ITC progress curves. It is filed as biochemical, Lyngbya majuscula. The conditions noted are these: 100 mM glycine pH 8.6, 37 °C.

Read-outs that look alike come from different tables or passages of the source.

Turning to `C[N+](C)(C)Cc1ccc(/N=N\c2cccc(CCl)c2)cc1` (mixture of isomers) [3c, Z-3c], on LinB [1], the “stopped-flow tryptophan fluorescence after preincubation” value is reported as “the inhibition effect of Z-3c was significantly more prominent in the case of LinB”.

`COCCOCCOc1ccc(/N=N\c2cccc(CCl)c2)cc1` [3a, Z-3a] came in with an inhibition constant Ki on DmmA [2] of 0.035 ± 0.001 µM. With `C[N+](C)(C)Cc1ccc(/N=N/c2cccc(CO)c2)cc1` [3c, E-3c-OH], the Kd on DmmA [3] stood at 3.55 ± 1.01 µM; on LinB [4] (enzyme-product complex (EP), read-out: K4), 11.6 ± 0.1 µM. `C[N+](C)(C)Cc1ccc(/N=N/c2cccc(CCl)c2)cc1` [3c, E-3c]: on LinB [4] (equilibrium dissociation constant of enzyme-substrate complex, read-out: K1), the Kd was found to be 7.39 ± 0.03 µM.

B1: DmmA (Lyngbya majuscula) (protein)
chain: T2 sequence (Q6DND9 25-341)
notes: His-tagged, expressed in E. coli BL21(DE3), Ni-NTA purified; PDB 3U1T for the docking model of the same protein
Regarding B1, in “ITC progress curves”, the Km was 850 ± 40 µM and the catalytic constant (kcat) is 0.50 ± 0.03 s⁻¹.

What is called Ki is the equilibrium dissociation constant of an inhibitor or competing ligand from its target. A higher Ki goes with weaker binding. As a reminder, the Km is the concentration of substrate that gives half-maximal velocity. As usually defined, the kcat is the number of substrate molecules converted per active site and unit of time at saturation.

For the origin of these results see publication PMC11301625, “Azobenzene-Based Photoswitchable Substrates for Advanced Mechanistic Studies of Model Haloalkane Dehalogenase Enzyme Family” (ACS Catalysis, 2024).
